According to patent US8367658B2, “Pyrazin-2-yl-pyridin-2-yl-amine and pyrazin-2-yl-pyrimidin-4-yl-amine compounds and their use” (Cancer Research Technology Limited, priority 2007, dated 2013):
Several values for one entry are separate records, joined by “and”; a condition that tells them apart may be missing. Equal entries are not always repeated.

These compounds were tested against T1, CHK1 (Homo sapiens, UniProt O14757) (assay: CHK1 kinase function inhibition assay (DELFIA, phosphorylation of a CDC25C peptide)). Conditions: CHK1 1 nM, ATP 30 μM, 30 minutes at room temperature.
T1 sequence (O14757 1-476): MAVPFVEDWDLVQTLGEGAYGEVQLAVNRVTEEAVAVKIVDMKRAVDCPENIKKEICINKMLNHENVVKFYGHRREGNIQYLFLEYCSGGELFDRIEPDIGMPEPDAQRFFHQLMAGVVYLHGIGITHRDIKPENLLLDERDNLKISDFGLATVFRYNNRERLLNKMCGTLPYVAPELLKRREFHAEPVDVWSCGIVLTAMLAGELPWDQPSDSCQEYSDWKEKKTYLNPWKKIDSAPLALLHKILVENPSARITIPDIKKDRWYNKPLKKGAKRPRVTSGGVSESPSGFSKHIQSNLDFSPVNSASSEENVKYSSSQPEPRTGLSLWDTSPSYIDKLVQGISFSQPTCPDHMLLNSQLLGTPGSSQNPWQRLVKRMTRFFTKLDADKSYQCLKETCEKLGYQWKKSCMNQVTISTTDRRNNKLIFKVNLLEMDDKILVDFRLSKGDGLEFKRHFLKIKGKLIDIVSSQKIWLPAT
Assay type: biochemical
In short: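 Phosphorylation of a CDC25C peptide detected by DELFIA with a phospho-specific antibody. Kinase reaction ran 30 min at room temperature, was stopped with EDTA buffer, then captured on neutravidin-coated plates for 1 h before time-resolved fluorescence read-out with enhancement solution.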

SMILES | IC50
N#Cc1cnc(Nc2cc(N(CCN)CC(N)=O)ncn2)cn1 [Compound Z-009, 2-((2-Aminoethyl)(6-(5-cyanopyrazin-2-ylamino)pyrimidin-4-yl)amino)acetamide] | 1 to 10 µM
N#Cc1cnc(Nc2cc(NCCC[C@H](N)C(=O)Nc3ccccc3)ncn2)cn1 [Compound Z-010, (S)-2-Amino-5-(6-(5-cyanopyrazin-2-ylamino)pyrimidin-4-ylamino)-N-phenylpentanamide] | ≤ 1 µM and 0.1 to 1 µM
N#Cc1cnc(Nc2cc(NCCC[C@H](N)C(=O)NCc3ccccc3)ncn2)cn1 [Compound Z-011, (S)-2-Amino-N-benzyl-5-(6-(5-cyanopyrazin-2-ylamino)pyrimidin-4-ylamino)pentanamide] | ≤ 1 µM and 0.1 to 1 µM
N#Cc1cnc(Nc2cc(NC3CCNCC3)ncn2)cn1 [Compound Z-012, 5-(6-(Piperidin-4-ylamino)pyrimidin-4-ylamino)pyrazine-2-carbonitrile] | ≤ 1 µM and 0.1 to 1 µM
N#Cc1cnc(Nc2cc(N[C@H]3CCCNC3)ncn2)cn1 [Compound Z-013, (S)-5-(6-(Piperidin-3-ylamino)pyrimidin-4-ylamino)pyrazine-2-carbonitrile] | 1 to 10 µM
N#Cc1cnc(Nc2cc(N3CCOC(CN)C3)ncn2)cn1 (stereo not shown) [Compound Z-014, 5-(6-(2-(Aminomethyl)morpholino)pyrimidin-4-ylamino)pyrazine-2-carbonitrile] | 1 to 10 µM
N#Cc1cnc(Nc2cc(N3CCC(C(N)c4ccccc4)CC3)ncn2)cn1 (stereo not shown) [Compound Z-015, 5-(6-(4-(Amino(phenyl)methyl)piperidin-1-yl)pyrimidin-4-ylamino)pyrazine-2-carbonitrile] | 1 to 10 µM
N#Cc1cnc(Nc2cc(NCCCCN)ncn2)cn1 [Compound Z-016, 5-(6-(4-Aminobutylamino)pyrimidin-4-ylamino)pyrazine-2-carbonitrile] | ≤ 1 µM and 0.6 µM and 0.1 to 1 µM
N#Cc1cnc(Nc2cc(N3CCNCC3)ncn2)cn1 [Compound Z-018, 5-(6-(piperazin-1-yl)pyrimidin-4-ylamino)pyrazine-2-carbonitrile] | 1 to 10 µM
N#Cc1cnc(Nc2cc(NCC3CCCNC3)ncn2)cn1 (stereo not shown) [Compound Z-022, 5-(6-(Piperidin-3-ylmethylamino)pyrimidin-4-ylamino)pyrazine-2-carbonitrile] | ≤ 1 µM and 0.1 to 1 µM
N#Cc1cnc(Nc2cc(N[C@H]3CCNC3)ncn2)cn1 [Compound Z-024, (S)-5-(6-(Pyrrolidin-3-ylamino)pyrimidin-4-ylamino)pyrazine-2-carbonitrile] | 1 to 10 µM
CN1C2CCC1CC(Nc1cc(Nc3cnc(C#N)cn3)ncn1)C2 [Compound Z-027, 5-(6-((1R,3s,5S)-8-Methyl-8-azabicyclo[3.2.1]octan-3-ylamino)pyrimidin-4-ylamino)pyrazine-2-carbonitrile] | ≤ 0.1 µM

Now from value to compound:

IC50 | SMILES
≤ 1 µM and 0.1 to 1 µM | N#Cc1cnc(Nc2cc(NCCC[C@@H](N)C(=O)Nc3ccccc3)ncn2)cn1 [Compound Z-025, (R)-2-Amino-5-(6-(5-cyanopyrazin-2-ylamino)pyrimidin-4-ylamino)-N-phenylpentanamide]
≤ 1 µM and 0.1 to 1 µM | N#Cc1cnc(Nc2cc(NCC[C@H](N)C(=O)Nc3ccccc3)ncn2)cn1 [Compound Z-026, (S)-2-Amino-4-(6-(5-cyanopyrazin-2-ylamino)pyrimidin-4-ylamino)-N-phenylbutanamide]
1 to 10 µM | CC1(CNc2cc(Nc3cnc(C#N)cn3)ncn2)CCNCC1 [Compound Z-028, 5-(6-((4-Methylpiperidin-4-yl)methylamino)pyrimidin-4-ylamino)pyrazine-2-carbonitrile]
≤ 1 µM and 0.1 to 1 µM | N#Cc1cnc(Nc2cc(NCCC3CCNCC3)ncn2)cn1 [Compound Z-029, 5-(6-(2-(Piperidin-4-yl)ethylamino)pyrimidin-4-ylamino)pyrazine-2-carbonitrile]
1 to 10 µM | CN(CC1CCNCC1)c1cc(Nc2cnc(C#N)cn2)ncn1 [Compound Z-031, 5-(6-(Methyl(piperidin-4-ylmethyl)amino)pyrimidin-4-ylamino)pyrazine-2-carbonitrile]
1 to 10 µM | CC(Nc1cc(Nc2cnc(C#N)cn2)ncn1)C1CCNCC1 (stereo not shown) [Compound Z-032, 5-(6-(1-(Piperidin-4-yl)ethylamino)pyrimidin-4-ylamino)pyrazine-2-carbonitrile]
1 to 10 µM | N#Cc1cnc(Nc2cc(N[C@H]3CC[C@H](O)CC3)ncn2)cn1 [Compound Z-038, 5-(6-((1r,4r)-4-Hydroxycyclohexylamino)pyrimidin-4-ylamino)pyrazine-2-carbonitrile]
≤ 1 µM and 0.1 to 1 µM | CC(C)(CO)Nc1cc(Nc2cnc(C#N)cn2)ncn1 [Compound Z-039, 5-(6-(1-Hydroxy-2-methylpropan-2-ylamino)pyrimidin-4-ylamino)pyrazine-2-carbonitrile]
1 to 10 µM | N#Cc1cnc(Nc2cc(NCCCCO)ncn2)cn1 [Compound Z-041, 5-(6-(4-Hydroxybutylamino)pyrimidin-4-ylamino)pyrazine-2-carbonitrile]
1 to 10 µM | COc1nc(Nc2cc(NCC3CCNCC3)ncn2)cnc1C#N [Compound Z-046, 3-Methoxy-5-(6-(piperidin-4-ylmethylamino)pyrimidin-4-ylamino)-pyrazine-2-carbonitrile]
